The values that follow come from patent US6858591B2, “Antibiotic AA 896 analogs” (Wyeth Holdings Corporation, priority 2001, dated 2005).

The MIC is the lowest concentration that inhibits growth of the organism.

What all share (test): In vitro MIC, broth dilution
What all share (format): cell-based

One assay deals with E. coli GC 4559. The settings on record: Escherichia coli, GC4559; E. coli GC 4559; read-out: MIC.
The next assay deals with E. coli GC 4560. Conditions: Escherichia coli, GC4560; E. coli GC 4560; read-out: MIC.
A further assay concerns E. coli GC 3226. The settings on record: Escherichia coli, GC3226; E. coli GC 3226; read-out: MIC.
A further assay relates to S. marcescens GC 4077. The settings on record: Serratia marcescens, GC4077; S. marcescens GC 4077; read-out: MIC.
Another assay deals with C. albicans GC 3066. The settings on record: Candida albicans, GC3066; C. albicans GC 3066; read-out: MIC.
A further assay has as its system M. morganii GC 4531. Conditions: Morganella morganii, GC4531; M. morganii GC 4531; read-out: MIC.
The next assay concerns K. pneumoniae GC 4534. The settings on record: Klebsiella pneumoniae, GC4534; K. pneumoniae GC 4534; read-out: MIC.
The test system of another assay is E. cloacae GC 3783. Conditions: Enterobacter cloacae, GC3783; E. cloacae GC 3783; read-out: MIC.
A further assay deals with P. aeruginosa GC 4532. Conditions: Pseudomonas aeruginosa, GC4532; P. aeruginosa GC 4532; read-out: MIC.
The next assay deals with CNS GC 4537. Put shortly:
(§1)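 Organisms were inoculated at 5×10^5 CFU/ml into Mueller-Hinton II containing antibiotic at 64-0.06 μg/ml, then incubated 18 hours at 35° C in ambient air. The MIC was the lowest concentration that inhibited growth.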

The test system of the next assay is CNS GC 4538. The gist of the method: as §1
A further assay has as its system CNS GC 4547. Put shortly:
as §1

The next assay deals with E. faecalis GC 2242. Conditions: Enterococcus faecalis, GC2242; E. faecalis GC 2242; read-out: MIC. The gist of the method:
as §1

In a further assay the test system is E. faecalis GC 4555. The settings on record: Enterococcus faecalis, GC4555; E. faecalis GC 4555; read-out: MIC. Put shortly: as §1
A further assay has as its system E. faecalis GC 842. Conditions: Enterococcus faecalis, GC842; E. faecalis GC 842; read-out: MIC. The gist of the method:
as §1

A further assay relates to S. aureus GC 1131. Conditions: Staphylococcus aureus, GC1131; S. aureus GC 1131; read-out: MIC. Put shortly:
as §1

For a further assay, the system named is S. aureus GC 2216. Conditions: Staphylococcus aureus, GC2216; S. aureus GC 2216; read-out: MIC. Put shortly: as §1
The test system of a further assay is S. aureus GC 4536. Conditions: Staphylococcus aureus, GC4536; S. aureus GC 4536; read-out: MIC. The gist of the method: as §1
For a further assay, the system named is E. coli GC 2203. Conditions: Escherichia coli, GC2203; E. coli GC 2203; read-out: MIC.
In a further assay the test system is P. aeruginosa GC 2214. The settings on record: Pseudomonas aeruginosa, GC2214; P. aeruginosa GC 2214; read-out: MIC.

Values after ≈ are worked out from the molar mass of the structure shown. Read-outs that look alike come from different tables or passages of the source.

Consider `CCOC(=O)C(NCCCNC(=O)[C@@H](NC(=O)[C@H](CCCNC(=N)N[N+](=O)[O-])NC(=O)N[C@H](C(=O)OCc1ccccc1)C(C)C)C(C)O)C(O)[C@H]1O[C@@H](n2ccc(=O)[nH]c2=O)[C@H](OC(C)=O)[C@@H]1OC(C)=O` (stereo partly drawn) [Example 35], for which the MIC was above 128 µg/mL with E. coli GC 4559; above 128 µg/mL in the assay on E. coli GC 4560; above 128 µg/mL in the assay with E. coli GC 3226; above 128 µg/mL with S. marcescens GC 4077; 128 µg/mL (≈ 125 µM) with C. albicans GC 3066; 128 µg/mL (≈ 125 µM) in the assay on M. morganii GC 4531. The MIC with K. pneumoniae GC 4534 was above 128 µg/mL; in the assay on E. cloacae GC 3783 it was above 128 µg/mL; in the assay on P. aeruginosa GC 4532, 128 µg/mL (≈ 125 µM); with CNS GC 4537, above 128 µg/mL; against CNS GC 4538, above 128 µg/mL; in the assay on CNS GC 4547, above 128 µg/mL. Besides, the MIC was 128 µg/mL (≈ 125 µM) in the assay on E. faecalis GC 2242; above 128 µg/mL with E. faecalis GC 4555; above 128 µg/mL in the assay with E. faecalis GC 842; above 128 µg/mL with S. aureus GC 1131; above 128 µg/mL in the assay with S. aureus GC 2216; above 128 µg/mL in the assay with S. aureus GC 4536. Also, the minimal inhibitory concentration (MIC) in the assay on E. coli GC 2203 is above 128 µg/mL; with P. aeruginosa GC 2214 it was 128 µg/mL (≈ 125 µM).

In the case of `CCOC(=O)C(NCCCNC(=O)[C@@H](NC(=O)OCc1ccccc1)[C@@H](O)C(C)C)[C@@H](O)[C@H]1O[C@@H](n2ccc(=O)[nH]c2=O)[C@H](OC(C)=O)[C@@H]1OC(C)=O` (stereo partly drawn) [Example 36, Ethyl (5S)-12-[(R)-[(2R,3R,4R,5R)-3,4-bis(acetyloxy)-5-(2,4-dioxo-3,4-dihydro-1(2H)-pyrimidinyl)tetrahydro-2-furanyl](hydroxy)methyl]-5-[(1S)-1-hydroxy-2-methylpropyl]-3,6-dioxo-1-phenyl-2-oxa-4,7,11-triazatridecan-13-oate], the MIC with E. coli GC 4559 was above 128 µg/mL; with E. coli GC 4560, above 128 µg/mL; with E. coli GC 3226, above 128 µg/mL; with S. marcescens GC 4077, above 128 µg/mL; in the assay with C. albicans GC 3066 it was 128 µg/mL (≈ 171 µM); in the assay with M. morganii GC 4531, 128 µg/mL (≈ 171 µM). Moreover, the MIC was above 128 µg/mL with K. pneumoniae GC 4534; above 128 µg/mL with E. cloacae GC 3783; 128 µg/mL (≈ 171 µM) in the assay with P. aeruginosa GC 4532; above 128 µg/mL with CNS GC 4537 (CNS GC 4537, read-out: MIC); above 128 µg/mL in the assay on CNS GC 4538 (CNS GC 4538, read-out: MIC); above 128 µg/mL in the assay with CNS GC 4547 (CNS GC 4547, read-out: MIC). Also, the minimum inhibitory concentration (MIC) in the assay with E. faecalis GC 2242 is 128 µg/mL (≈ 171 µM); with E. faecalis GC 4555, above 128 µg/mL; with E. faecalis GC 842 it was above 128 µg/mL; in the assay on S. aureus GC 1131, above 128 µg/mL; in the assay on S. aureus GC 2216 it was above 128 µg/mL; with S. aureus GC 4536, above 128 µg/mL. Also, the values for the MIC with E. coli GC 2203 and with P. aeruginosa GC 2214 were above 128 µg/mL and 128 µg/mL (≈ 171 µM), respectively.

On to `CCOC(=O)C(NCCCNC(=O)[C@@H](NC(=O)[C@H](CCCNC(=N)N[N+](=O)O)NC(=O)N[C@H](C(=O)OCc1ccccc1)C(C)C)[C@@H](O)C(C)C)C(O)[C@H]1O[C@@H](n2ccc(=O)[nH]c2=O)[C@H](OC(C)=O)[C@@H]1OC(C)=O` (stereo partly drawn) [Example 37, 16-Benzyl 2-ethyl (1R,9S,12S,16S)-1-[(2R,3R,4R,5R)-3,4-bis(acetyloxy)-5-(2,4-dioxo-3,4-dihydro-1(2H)-pyrimidinyl)tetrahydro-2-furanyl]-12-(3-{[(2,2-dioxido-2lambda˜1˜-diazanyl)(imino)methyl]amino}propyl)-1-hydroxy-9-[(1S)-hydroxy-2-methylpropyl]-17-methyl-8,11,14-trioxo-3,7,10,13,15-pentaazaoctadecane-2,16-dicarboxylate], for which the MIC in the assay with E. coli GC 4559, in the assay with E. coli GC 4560, with E. coli GC 3226, with S. marcescens GC 4077, in the assay with C. albicans GC 3066 and with M. morganii GC 4531 was above 128 µg/mL throughout. Further, the minimum inhibitory concentration (MIC) in the assay on K. pneumoniae GC 4534, in the assay on E. cloacae GC 3783, in the assay with P. aeruginosa GC 4532, with CNS GC 4537, against CNS GC 4538 and in the assay with CNS GC 4547 was above 128 µg/mL each time. The minimal inhibitory concentration (MIC) was 128 µg/mL in the assay with E. faecalis GC 2242; above 128 µg/mL with E. faecalis GC 4555; above 128 µg/mL in the assay on E. faecalis GC 842; above 128 µg/mL with S. aureus GC 1131; above 128 µg/mL with S. aureus GC 2216; above 128 µg/mL in the assay with S. aureus GC 4536. Besides, the minimum inhibitory concentration (MIC) in the assay on E. coli GC 2203 and in the assay with P. aeruginosa GC 2214 was above 128 µg/mL each time.

Take `CCOC(=O)C(NCCCNC(=O)[C@H](CC(C)C)NC(=O)OCc1ccccc1)C(OC(C)=O)[C@H]1O[C@H](n2ccc(=O)[nH]c2=O)[C@H](OC(C)=O)[C@@H]1OC(C)=O` (stereo partly drawn) [Example 38a, Ethyl (5S)-12-{(R)-(acetyloxy)[(2R,3R,4R,5S)-3,4-bis(acetyloxy)-5-(2,4-dioxo-3,4-dihydro-1(2H)-pyrimidinyl)tetrahydro-2-furanyl]methyl}-5-isobutyl-3,6-dioxo-1-phenyl-2-oxa-4,7,11-triazatridecan-13-oate]: the MIC in the assay on E. coli GC 4559, in the assay on E. coli GC 4560, in the assay with E. coli GC 3226, in the assay on S. marcescens GC 4077, in the assay with C. albicans GC 3066 and in the assay on M. morganii GC 4531 was above 128 µg/mL in each case. The MIC was above 128 µg/mL with K. pneumoniae GC 4534; above 128 µg/mL with E. cloacae GC 3783; above 128 µg/mL with P. aeruginosa GC 4532; above 128 µg/mL in the assay with CNS GC 4537 (CNS GC 4537, read-out: MIC); above 128 µg/mL with CNS GC 4538 (CNS GC 4538, read-out: MIC); above 128 µg/mL in the assay on CNS GC 4547 (CNS GC 4547, read-out: MIC). Moreover, the MIC with E. faecalis GC 2242, in the assay with E. faecalis GC 4555, with E. faecalis GC 842, in the assay on S. aureus GC 1131, in the assay with S. aureus GC 2216 and with S. aureus GC 4536 was above 128 µg/mL each time. Also, the minimum inhibitory concentration (MIC) with E. coli GC 2203 and in the assay with P. aeruginosa GC 2214 was above 128 µg/mL in each case.

Turning to `CCOC(=O)C(NCCCNC(=O)[C@H](CC(C)C)NC(=O)OCc1ccccc1)C(OC(C)=O)[C@H]1O[C@@H](n2ccc(=O)[nH]c2=O)[C@H](OC(C)=O)[C@@H]1OC(C)=O` (stereo partly drawn) [Example 38b, Ethyl (5S)-12-{(R)-(acetyloxy)[(2R,3R,4R,5R)-3,4-bis(acetyloxy)-5-(2,4-dioxo-3,4-dihydro-1(2H)-pyrimidinyl)tetrahydro-2-furanyl]methyl}-5-isobutyl-3,6-dioxo-1-phenyl-2-oxa-4,7,11-triazatridecan-13-oate], the MIC with E. coli GC 4559, in the assay on E. coli GC 4560, in the assay with E. coli GC 3226, with S. marcescens GC 4077, with C. albicans GC 3066 and with M. morganii GC 4531 was above 128 µg/mL each time. For the same compound, the minimum inhibitory concentration (MIC) is above 128 µg/mL with K. pneumoniae GC 4534; above 128 µg/mL with E. cloacae GC 3783; above 128 µg/mL with P. aeruginosa GC 4532; above 128 µg/mL in the assay with CNS GC 4537 (CNS GC 4537, read-out: MIC); above 128 µg/mL in the assay with CNS GC 4538 (CNS GC 4538, read-out: MIC); above 128 µg/mL in the assay with CNS GC 4547 (CNS GC 4547, read-out: MIC). The MIC in the assay on E. faecalis GC 2242, with E. faecalis GC 4555, in the assay with E. faecalis GC 842, in the assay with S. aureus GC 1131, with S. aureus GC 2216 and in the assay on S. aureus GC 4536 was above 128 µg/mL each time. The MIC in the assay on E. coli GC 2203 and in the assay with P. aeruginosa GC 2214 was above 128 µg/mL each time.

Consider `CCOC(=O)C(NCCCNC(=O)[C@@H](N)CC(C)C)[C@@H](OC(C)=O)[C@H]1O[C@H](n2ccc(=O)[nH]c2=O)[C@H](OC(C)=O)[C@@H]1OC(C)=O` (stereo partly drawn) [Example 39, Ethyl (3R)-3-(acetyloxy)-2-[(3-{[(2S)-2-amino-4-methylpentanoyl]amino}propyl)amino]-3-[(2R,3R,4R,5S)-3,4-bis(acetyloxy)-5-(2,4-dioxo-3,4-dihydro-1(2H)-pyrimidinyl)tetrahydro-2-furanyl]propanoate], for which the MIC in the assay with E. coli GC 4559 was above 128 µg/mL; in the assay on E. coli GC 4560 it was above 128 µg/mL; with E. coli GC 3226, above 128 µg/mL; in the assay with S. marcescens GC 4077, 128 µg/mL (≈ 199 µM); in the assay on C. albicans GC 3066 it was 128 µg/mL (≈ 199 µM); in the assay on M. morganii GC 4531, 128 µg/mL (≈ 199 µM). Further, the minimum inhibitory concentration (MIC) in the assay with K. pneumoniae GC 4534 is above 128 µg/mL; in the assay on E. cloacae GC 3783, above 128 µg/mL; in the assay with P. aeruginosa GC 4532 it was 128 µg/mL (≈ 199 µM); in the assay with CNS GC 4537 (CNS GC 4537, read-out: MIC) it was above 128 µg/mL; with CNS GC 4538 (CNS GC 4538, read-out: MIC) it was above 128 µg/mL; in the assay with CNS GC 4547 (CNS GC 4547, read-out: MIC), above 128 µg/mL. The MIC in the assay with E. faecalis GC 2242 is 128 µg/mL (≈ 199 µM); with E. faecalis GC 4555 it was above 128 µg/mL; with E. faecalis GC 842, above 128 µg/mL; with S. aureus GC 1131, above 128 µg/mL; in the assay with S. aureus GC 2216 it was above 128 µg/mL; in the assay with S. aureus GC 4536, above 128 µg/mL. Also, the MIC with E. coli GC 2203 was above 128 µg/mL; in the assay with P. aeruginosa GC 2214, 128 µg/mL (≈ 199 µM).
